PubChem BioAssay AID1963844 (Molecular Pharmacology Branch, DTP, NCI, 2024)

System: 422866-222-R5-J1-PDC complex spheroid viability
Assay: Anticancer human tumor 422866-222-R5-J1-PDC patient-derived pancreatic adenocarcinoma cell line growth inhibition [POLQ]
Conditions: for IC50: curve of first compound; for viability, T/C: stronger effect = lower value
Procedure, shortened: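 PDC + HUVEC + MSC complex spheroids; POLQ inhibitors ± partner drugs; top conc. at/near clinical Cmax, else 10 microM (SN-38 1 microM), half-log dilutions; 37 degrees C, 5% CO2.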

[1] = second compound 0.0316 µM, first compound 0.0316 µM
[2] = second compound 0.0316 µM, first compound 0.1 µM
[3] = second compound 0.0316 µM, first compound 0.316 µM
[4] = second compound 0.0316 µM, first compound 1 µM
[5] = second compound 0.0316 µM, first compound 3.16 µM
[6] = second compound 0.0316 µM, first compound 10 µM
[7] = second compound 0.1 µM, first compound 0.0316 µM
[8] = second compound 0.1 µM, first compound 0.1 µM
[9] = second compound 0.1 µM, first compound 0.316 µM
[10] = second compound 0.1 µM, first compound 1 µM
[11] = second compound 0.1 µM, first compound 3.16 µM
[12] = second compound 0.1 µM, first compound 10 µM
[13] = second compound 0.316 µM, first compound 0.0316 µM
[14] = second compound 0.316 µM, first compound 0.1 µM
[15] = second compound 0.316 µM, first compound 0.316 µM
[16] = second compound 0.316 µM, first compound 1 µM
[17] = second compound 0.316 µM, first compound 3.16 µM
[18] = second compound 0.316 µM, first compound 10 µM
[19] = second compound 1 µM, first compound 0.0316 µM
[20] = second compound 1 µM, first compound 0.1 µM
[21] = second compound 1 µM, first compound 0.316 µM
[22] = second compound 1 µM, first compound 1 µM
[23] = second compound 1 µM, first compound 3.16 µM
[24] = second compound 1 µM, first compound 10 µM
[25] = second compound 3.16 µM, first compound 0.0316 µM
[26] = second compound 3.16 µM, first compound 0.1 µM
[27] = second compound 3.16 µM, first compound 0.316 µM
[28] = second compound 3.16 µM, first compound 1 µM
[29] = second compound 3.16 µM, first compound 3.16 µM
[30] = second compound 3.16 µM, first compound 10 µM
[31] = second compound 10 µM, first compound 0.0316 µM
[32] = second compound 10 µM, first compound 0.1 µM
[33] = second compound 10 µM, first compound 0.316 µM
[34] = second compound 10 µM, first compound 1 µM
[35] = second compound 10 µM, first compound 3.16 µM
[36] = second compound 10 µM, first compound 10 µM
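Also: spheroids exposed to compounds for one week before readout.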
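For viability, T/C in this document: percent of DMSO vehicle wells luminescence so 100% = untreated viability.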

## C#Cc1c(F)ccc2cc(O)cc(-c3ncc4c(N5CC6CCC(C5)N6)nc(OCC56CCCN5CC(F)C6)nc4c3F)c12 (stereo unspecified) + COC1C(OC(N)=O)C(O)C(Oc2ccc3c(O)c(NC(=O)c4ccc(O)c(CC=C(C)C)c4)c(=O)oc3c2C)OC1(C)C
Second compound 0.0316 µM
  IC50: 0.715 µM
Second compound 0.1 µM
  IC50: 0.78 µM
Second compound 0.316 µM
  IC50: 0.75 µM
Second compound 1 µM
  IC50: 0.859 µM
Second compound 3.16 µM
  IC50: 0.664 µM
Second compound 10 µM
  IC50: 0.81 µM
[1]
  viability, T/C: 95.7%
[2]
  viability, T/C: 78.9%
[3]
  viability, T/C: 59.6%
[4]
  viability, T/C: 46.2%
[5]
  viability, T/C: 35.9%
[6]
  viability, T/C: 29.8%
[7]
  viability, T/C: 92.5%
[8]
  viability, T/C: 86.3%
[9]
  viability, T/C: 66.5%
[10]
  viability, T/C: 46.1%
[11]
  viability, T/C: 34.2%
[12]
  viability, T/C: 32.8%
[13]
  viability, T/C: 99.5%
[14]
  viability, T/C: 85.8%
[15]
  viability, T/C: 66.2%
[16]
  viability, T/C: 45.2%
[17]
  viability, T/C: 31.4%
[18]
  viability, T/C: 28.8%
[19]
  viability, T/C: 106%
[20]
  viability, T/C: 102%
[21]
  viability, T/C: 73.4%
[22]
  viability, T/C: 46.9%
[23]
  viability, T/C: 37%
[24]
  viability, T/C: 32%
[25]
  viability, T/C: 93.3%
[26]
  viability, T/C: 93.9%
[27]
  viability, T/C: 67.1%
[28]
  viability, T/C: 40.9%
[29]
  viability, T/C: 36.9%
[30]
  viability, T/C: 30.3%
[31]
  viability, T/C: 96.1%
[32]
  viability, T/C: 86.1%
[33]
  viability, T/C: 64.7%
[34]
  viability, T/C: 47.6%
[35]
  viability, T/C: 33.7%
[36]
  viability, T/C: 29.4%

## CCc1cc2c(N3CCc4c(cc(Cn5ccnc5)cc4-c4cn(C)nc4C(F)(F)F)C3=O)cc(C)nc2c(OC)n1 + COC1C(OC(N)=O)C(O)C(Oc2ccc3c(O)c(NC(=O)c4ccc(O)c(CC=C(C)C)c4)c(=O)oc3c2C)OC1(C)C
Second compound 0.0316 µM
  IC50: > 10 µM
Second compound 0.1 µM
  IC50: > 10 µM
Second compound 0.316 µM
  IC50: > 10 µM
Second compound 1 µM
  IC50: > 10 µM
Second compound 3.16 µM
  IC50: > 10 µM
Second compound 10 µM
  IC50: > 10 µM
[1]
  viability, T/C: 96.1%
[2]
  viability, T/C: 95.7%
[3]
  viability, T/C: 92.4%
[4]
  viability, T/C: 129%
[5]
  viability, T/C: 125%
[6]
  viability, T/C: 119%
[7]
  viability, T/C: 100%
[8]
  viability, T/C: 88.8%
[9]
  viability, T/C: 94.6%
[10]
  viability, T/C: 126%
[11]
  viability, T/C: 110%
[12]
  viability, T/C: 93.7%
[13]
  viability, T/C: 93.7%
[14]
  viability, T/C: 94.5%
[15]
  viability, T/C: 108%
[16]
  viability, T/C: 102%
[17]
  viability, T/C: 102%
[18]
  viability, T/C: 111%
[19]
  viability, T/C: 97.7%
[20]
  viability, T/C: 98%
[21]
  viability, T/C: 96.5%
[22]
  viability, T/C: 92.8%
[23]
  viability, T/C: 121%
[24]
  viability, T/C: 108%
[25]
  viability, T/C: 102%
[26]
  viability, T/C: 101%
[27]
  viability, T/C: 123%
[28]
  viability, T/C: 106%
[29]
  viability, T/C: 123%
[30]
  viability, T/C: 116%
[31]
  viability, T/C: 102%
[32]
  viability, T/C: 85.6%
[33]
  viability, T/C: 106%
[34]
  viability, T/C: 95.1%
[35]
  viability, T/C: 109%
[36]
  viability, T/C: 102%

## CCc1cc2c(N3CCc4c(cc(Cn5ccnc5)cc4-c4cn(C)nc4C(F)(F)F)C3=O)ccnc2c(OC)n1 + COC1C(OC(N)=O)C(O)C(Oc2ccc3c(O)c(NC(=O)c4ccc(O)c(CC=C(C)C)c4)c(=O)oc3c2C)OC1(C)C
Second compound 0.0316 µM
  IC50: > 10 µM
Second compound 0.1 µM
  IC50: > 10 µM
Second compound 0.316 µM
  IC50: > 10 µM
Second compound 1 µM
  IC50: > 10 µM
Second compound 3.16 µM
  IC50: > 10 µM
Second compound 10 µM
  IC50: > 10 µM
[1]
  viability, T/C: 95.3%
[2]
  viability, T/C: 92.8%
[3]
  viability, T/C: 108%
[4]
  viability, T/C: 119%
[5]
  viability, T/C: 113%
[6]
  viability, T/C: 116%
[7]
  viability, T/C: 92.8%
[8]
  viability, T/C: 108%
[9]
  viability, T/C: 116%
[10]
  viability, T/C: 104%
[11]
  viability, T/C: 110%
[12]
  viability, T/C: 111%
[13]
  viability, T/C: 104%
[14]
  viability, T/C: 91%
[15]
  viability, T/C: 92.2%
[16]
  viability, T/C: 101%
[17]
  viability, T/C: 112%
[18]
  viability, T/C: 124%
[19]
  viability, T/C: 86.6%
[20]
  viability, T/C: 91.4%
[21]
  viability, T/C: 102%
[22]
  viability, T/C: 100%
[23]
  viability, T/C: 115%
[24]
  viability, T/C: 124%
[25]
  viability, T/C: 91.9%
[26]
  viability, T/C: 105%
[27]
  viability, T/C: 129%
[28]
  viability, T/C: 114%
[29]
  viability, T/C: 105%
[30]
  viability, T/C: 114%
[31]
  viability, T/C: 93%
[32]
  viability, T/C: 98.1%
[33]
  viability, T/C: 105%
[34]
  viability, T/C: 109%
[35]
  viability, T/C: 105%
[36]
  viability, T/C: 122%
